Assay results published in patent US20170190671A1, “BIS(ARYL)CATECHOL DERIVATIVES AS HERBICIDES” (E I DU PONT DE NEMOURS AND COMPANY, priority 2014, published 2017).

Legend:
[1] = system: large (Lg) crabgrass (Digitaria sanguinalis); assay: Test A postemergence; assay type: in vivo; details: 0 to 100 scale
Outline: (§1)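 Greenhouse pot test, loam/sand soil. Formulation: non-phytotoxic solvent mix plus surfactant. Pre: directed spray onto soil after sowing. Post: plants at 1–2 leaf, 2–10 cm. Rated visually vs untreated controls at ~10 d, 0 (no effect) to 100 (complete control).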

[2] = system: morningglory (Ipomoea spp.); assay: Test A postemergence; assay type: in vivo; details: 0 to 100 scale
Outline: as §1

[3] = system: velvetleaf (Abutilon theophrasti); assay: Test A postemergence; assay type: in vivo; details: 0 to 100 scale
Outline: as §1

[4] = system: Italian ryegrass (Lolium multiflorum); assay: Test D preemergence; assay type: in vivo; details: scale 0 to 100
Source text: (§2) Seeds of plant species selected from bluegrass (annual bluegrass, Poa annua), blackgrass (Alopecurus myosuroides), canarygrass (Phalaris minor), chickweed (common chickweed, Stellaria media), cutleaf geranium (Geranium dissectum), galium (catchweed bedstraw, Galium aparine), downy bromegrass (Bromus tectorum), field poppy (Papaver rhoeas), field violet (Viola arvensis), green foxtail (Setaria viridis), deadnettle (henbit deadnettle, Lamium amplexicaule), Italian ryegrass (Lolium multiflorum), kochia (Kochia scoparia), lambsquarters (Chenopodium album), oilseed rape (Brassica napus), pigweed (Amaranthus retroflexus), chamomile (scentless chamomile, Matricaria inodora), Russian thistle (Salsola kali), speedwell (bird's-eye speedwell, Veronica persica), spring barley (Hordeum vulgare), spring wheat (Triticum aestivum), wild buckwheat (Polygonum convolvulus), wild mustard (Sinapis arvensis), wild oat (Avenafatua), wild radish (Raphanus raphanistrum), windgrass (Apera spica-venti), winter barley (Hordeum vulgare), and winter wheat (Triticum aestivum) were planted into a silt loam soil and treated preemergence with test chemicals formulated in a non-phytotoxic solvent mixture which included a surfactant.
(§3) At the same time, these species were planted in pots containing Redi-Earth® planting medium (Scotts Company, 14111 Scottslawn Road, Marysville, Ohio 43041) comprising spaghnum peat moss, vermiculite, wetting agent and starter nutrients and treated with postemergence applications of the test chemicals formulated in the same manner. Plants ranged in height from 2 to 18 cm (1- to 4-leaf stage). Treated plants and controls were maintained in a controlled growth environment for 14 to 21 days after which time all species were compared to controls and visually evaluated. Plant response ratings, summarized in Table D, are based on a scale of 0 to 100 where 0 is no effect and 100 is complete control. A dash (-) response means no test result.

[5] = system: blackgrass (Alopecurus myosuroides); assay: Test D preemergence; assay type: in vivo; details: scale 0 to 100
Source text: as §2, §3

[6] = system: green foxtail (Setaria viridis); assay: Test D preemergence; assay type: in vivo; details: scale 0 to 100
Source text: as §2, §3

[7] = system: kochia (Kochia scoparia); assay: Test D preemergence; assay type: in vivo; details: scale 0 to 100
Source text: as §2, §3

[8] = system: lambsquarters (Chenopodium album); assay: Test D preemergence; assay type: in vivo; details: scale 0 to 100
Source text: as §2, §3

[9] = system: pigweed (Amaranthus retroflexus); assay: Test D preemergence; assay type: in vivo; details: scale 0 to 100
Source text: as §2, §3

[10] = system: spring wheat (Triticum aestivum); assay: Test D preemergence; assay type: in vivo; details: scale 0 to 100
Source text: as §2, §3

[11] = system: wild radish (Raphanus raphanistrum); assay: Test D preemergence; assay type: in vivo; details: scale 0 to 100
Source text: as §2, §3

[12] = system: wild oat (Avenafatua); assay: Test D preemergence; assay type: in vivo, Avena fatua; details: scale 0 to 100
Source text: as §2, §3

[13] = system: field poppy (Papaver rhoeas); assay: Test D postemergence; assay type: in vivo; details: scale 0 to 100
Outline: (§4)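 Greenhouse herbicide screen. Pre: silt loam, spray at planting. Post: 1–4 leaf, 2–18 cm. Readout: visual % control (0–100) at 14–21 DAT vs controls.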

[14] = system: lambsquarters (Chenopodium album); assay: Test D postemergence; assay type: in vivo; details: scale 0 to 100
Outline: as §4

[15] = system: oilseed rape (Brassica napus); assay: Test D postemergence; assay type: in vivo; details: scale 0 to 100
Outline: as §4

[16] = system: spring barley (Hordeum vulgare); assay: Test D postemergence; assay type: in vivo; details: scale 0 to 100
Outline: as §4

[17] = system: windgrass (Apera spica-venti); assay: Test D postemergence; assay type: in vivo; details: scale 0 to 100
Outline: as §4

N#Cc1cccc(Oc2ncc(Cl)cn2)c1Oc1ncc(Cl)cn1 [Compound 3, 2,3-bis[(5-chloro-2-pyrimidinyl)oxy]benzonitrile]
Plant response rating, Crabgrass, Large ([1]; 125 g ai/ha): 90
Plant response rating, Crabgrass, Large ([1]; 500 g ai/ha): 90
Plant response rating, Morningglory ([2]; 125 g ai/ha): 100
Plant response rating, Morningglory ([2]; 500 g ai/ha): 100
Plant response rating, Velvetleaf ([3]; 125 g ai/ha): 100
Plant response rating, Velvetleaf ([3]; 500 g ai/ha): 100
Plant response rating, Ryegrass, Italian ([4]; 16 g ai/ha): 0
Plant response rating, Ryegrass, Italian ([4]; 31 g ai/ha): 0
Plant response rating, Ryegrass, Italian ([4]; 62 g ai/ha): 50
Plant response rating, Ryegrass, Italian ([4]; 125 g ai/ha): 40
Plant response rating, Blackgrass ([5]; 16 g ai/ha): 0
Plant response rating, Blackgrass ([5]; 31 g ai/ha): 10
Plant response rating, Blackgrass ([5]; 62 g ai/ha): 35
Plant response rating, Blackgrass ([5]; 125 g ai/ha): 70
Plant response rating, Foxtail, Green ([6]; 16 g ai/ha): 10
Plant response rating, Foxtail, Green ([6]; 31 g ai/ha): 60
Plant response rating, Foxtail, Green ([6]; 62 g ai/ha): 100
Plant response rating, Foxtail, Green ([6]; 125 g ai/ha): 100
Plant response rating, Kochia ([7]; 16 g ai/ha): 100
Plant response rating, Kochia ([7]; 31 g ai/ha): 100
Plant response rating, Kochia ([7]; 62 g ai/ha): 100
Plant response rating, Kochia ([7]; 125 g ai/ha): 100
Plant response rating, Lambsquarters ([8]; 16 g ai/ha): 10
Plant response rating, Lambsquarters ([8]; 31 g ai/ha): 95
Plant response rating, Lambsquarters ([8]; 62 g ai/ha): 100
Plant response rating, Lambsquarters ([8]; 125 g ai/ha): 100
Plant response rating, Pigweed ([9]; 16 g ai/ha): 100
Plant response rating, Pigweed ([9]; 31 g ai/ha): 100
Plant response rating, Pigweed ([9]; 62 g ai/ha): 100
Plant response rating, Pigweed ([9]; 125 g ai/ha): 100
Plant response rating, Wheat, Spring ([10]; 16 g ai/ha): 0
Plant response rating, Wheat, Spring ([10]; 31 g ai/ha): 0
Plant response rating, Wheat, Spring ([10]; 62 g ai/ha): 10
Plant response rating, Wheat, Spring ([10]; 125 g ai/ha): 20
Plant response rating, Radish, Wild ([11]; 16 g ai/ha): 30
Plant response rating, Radish, Wild ([11]; 31 g ai/ha): 80
Plant response rating, Radish, Wild ([11]; 62 g ai/ha): 100
Plant response rating, Radish, Wild ([11]; 125 g ai/ha): 100
Plant response rating, Oat, Wild ([12]; 16 g ai/ha): 0
Plant response rating, Oat, Wild ([12]; 31 g ai/ha): 0
Plant response rating, Oat, Wild ([12]; 62 g ai/ha): 0
Plant response rating, Oat, Wild ([12]; 125 g ai/ha): 50
Plant response rating, Field Poppy ([13]; 16 g ai/ha): 35
Plant response rating, Field Poppy ([13]; 31 g ai/ha): 40
Plant response rating, Field Poppy ([13]; 62 g ai/ha): 55
Plant response rating, Field Poppy ([13]; 125 g ai/ha): 70
Plant response rating, Lambsquarters ([14]; 16 g ai/ha): 70
Plant response rating, Lambsquarters ([14]; 31 g ai/ha): 80
Plant response rating, Lambsquarters ([14]; 62 g ai/ha): 100
Plant response rating, Lambsquarters ([14]; 125 g ai/ha): 100
Plant response rating, Oilseed Rape ([15]; 16 g ai/ha): 40
Plant response rating, Oilseed Rape ([15]; 31 g ai/ha): 55
Plant response rating, Oilseed Rape ([15]; 62 g ai/ha): 60
Plant response rating, Oilseed Rape ([15]; 125 g ai/ha): 90
Plant response rating, Barley, Spring ([16]; 16 g ai/ha): 5
Plant response rating, Barley, Spring ([16]; 31 g ai/ha): 10
Plant response rating, Barley, Spring ([16]; 62 g ai/ha): 15
Plant response rating, Barley, Spring ([16]; 125 g ai/ha): 20
Plant response rating, Windgrass ([17]; 16 g ai/ha): 10
Plant response rating, Windgrass ([17]; 31 g ai/ha): 15
Plant response rating, Windgrass ([17]; 62 g ai/ha): 25
Plant response rating, Windgrass ([17]; 125 g ai/ha): 30

Fc1cccc(Oc2ncc(Cl)cn2)c1Oc1ncc(Cl)cn1 [Compound 21, 2,2′-[[3-fluoro-1,2-phenylene]bis(oxy)]bis[5-chloropyrimidine]]
Plant response rating, Crabgrass, Large ([1]; 125 g ai/ha): 80
Plant response rating, Crabgrass, Large ([1]; 500 g ai/ha): 90
Plant response rating, Morningglory ([2]; 125 g ai/ha): 90
Plant response rating, Morningglory ([2]; 500 g ai/ha): 100
Plant response rating, Velvetleaf ([3]; 125 g ai/ha): 90
Plant response rating, Velvetleaf ([3]; 500 g ai/ha): 100
